Tested on: HaCaT human keratinocytes
Test: Affymetrix GeneChip microarray, transcriptional response to β-carotene and/or UVA
Type: cell-based
Details: UVA and β-carotene 1.5 μM
Experimental: The cell culture experiments were carried out as described. Briefly, a subclone of passage 65 HaCaT keratinocytes, selected for differentiation capacity, was used at passages 16 to 23 after subcloning. 2×10^5 cells were seeded per 60 millimeter dish. Starting the following day, the cells were pretreated for 2 days with β-carotene at 1.5 μM, a typical concentration in human plasma after moderate dietary supplementation)
β-carotene-containing medium was prepared as follows. Fresh all-E-β-carotene (DSM Nutritional Products, Kaiseraugst, Switzerland) stock solution in THF (containing 0.025% BHT; Fluka Chemie A G, Switzerland) was diluted 1:2 with ethanol and added to cell culture medium to a final concentration of 1.5 μM β-carotene. The solvent concentration in the medium was 0.5% for all treatments. β-carotene-containing medium was prepared fresh for the daily medium changes.
On day 3 of the experiment, the cells were irradiated with a Hönle sun lamp Sol 500 (270 kJ/m^2; Dr. Hönle, Germany).
Five independent, factorially designed cell irradiation experiments were analyzed by microarray hybridization. For each experiment, one chip was hybridized per treatment condition. GeneChip® analysis was done as described in [132], which is incorporated by reference, as if recited in full herein. Gene regulation by β-carotene and/or UVA was calculated relative to placebo.
Changes in gene expression were included in further analysis only if the change factor was […], and if unpaired t-tests yielded p values≦0.05. Upregulations by a […] are labeled bold, downregulations by a change factor of […] are labeled bold italics. (Table 1) To identify the pathways affected by the treatments functional information on the genes was retrieved from public literature databases.

In the case of `CC1=C(/C=C/C(C)=C/C=C/C(C)=C/C=C/C=C(C)/C=C/C=C(C)/C=C/C2=C(C)CCCC2(C)C)C(C)(C)CCC1` [β-carotene, All-E-β-carotene], the “5-aminolevulinate synthase (Y00451) change factor” value is reported as 0.41, the “AAC11 (U83857) change factor” value is reported as −0.05 and the “AP-2α (M36711) change factor” value is reported as −0.67. For the same compound, the “ATF4; activating transcription factor 4 (AL022312) change factor” value was 0.96, the “BAXγ (L22475) change factor” value was −0.34 and the “BAXδ (U19599) change factor” value was 0.67. The “BMP2a; bone morphogenetic protein 2a (bmp-2a) (M22489) change factor” value was 0.16, the “BPAG1; bullous pemphigoid antigen (M69225) change factor” value was 0.12 and the “BUB1; mitotic checkpoint kinase (AF053305) change factor” value was −0.81. For the same compound, the “C-FOS (V01512) change factor” value was 2.49, the “C-FOS (V01512, second entry) change factor” value was 1.36 and the “C-JUN (J04111) change factor” value was 0.93. The “C/EBPβ; NF-IL6 (X52560) change factor” value was 0.83, the “C/EBPγ (U20240) change factor” value was 0.71 and the “C/EBPδ; NF-IL6-β (M83667) change factor” value was 0.31. The “CDK activating kinase (X77743) change factor” value was 0.57, the “CDK-inhibitor p57KIP2 (KIP2) mrna (U22398) change factor” value was 0.79 and the “CENP-A; centromere protein-A (U14518) change factor” value was −1.82. For the same compound, the “CENP-E; centromere protein-E (Z15005) change factor” value was −1.44, the “CENP-F; mitosin (U30872) change factor” value was −1.22 and the “CEP110; centriole associated protein (AF083322) change factor” value was −4.18. The “CIP2; CDKN3 (L25876) change factor” value was −0.81, the “CLARP; CFLAR, alternatively spliced (AF005775) change factor” value was −0.62 and the “COUP-TF II; ARP1; apoA1 regulatory protein (M64497) change factor” value was 0.81. The “COX-2, cyclooxygenase-2 (U04636) change factor” value was 0.2, the “CRADD; death domain containing protein (U84388) change factor” value was −0.87 and the “DKK-1; dickkopf-1 (AB020315) change factor” value was 1.4. The “DNA ligase III (X84740) change factor” value was −0.71, the “DNA polymerase α-subunit (X06745) change factor” value was −0.63 and the “DNA primase (subunit p58) (X74331) change factor” value was −0.41. The “DNA-PK, catalytic subunit (U47077) change factor” value was −1.06, the “DSC2; desmocollin type 2a and 2b (X56807) change factor” value was −0.29 and the “DUSP5 (U15932) change factor” value was 2.84. The “DUSP7 (X93921) change factor” value was 0.99, the “EGFR; precursor of epidermal growth factor receptor (X00588) change factor” value was −0.69 and the “ENDOGL-2 (AB020735) change factor” value was 0.41. For the same compound, the “ERBB3 precursor; similar to (H06628) change factor” value was −0.78, the “ERCC5; excision repair protein (L20046) change factor” value was −0.95 and the “ERF-2 (X78992) change factor” value was 0.99. The “FGFR2; FGF receptor 2 (M87770) change factor” value was −0.48, the “FGFR3; FGF receptor (M64347) change factor” value was −2.58 and the “FRA-1 (X16707) change factor” value was 0.71. For the same compound, the “FRA-2 (X16706) change factor” value was −0.13, the “GADD34 (U83981) change factor” value was 2.62 and the “GADD153 (S62138) change factor” value was 7.64. For the same compound, the “GDF-1; growth/differentiation factor 1 (gdf-1) (M62302) change factor” value was −0.43, the “GEM (U10550) change factor” value was 3.91 and the “HB-EGF; heparin-binding egf-like growth factor (M60278) change factor” value was 3.32. The “HER3; epidermal growth factor receptor (her3) (M34309) change factor” value was −1.12, the “HER3; epidermal growth factor receptor (her3) (M34309, second entry) change factor” value was −1.56 and the “HM74; PAR1-related (D10923) change factor” value was −0.55. For the same compound, the “HOXA7 (AJj005814) change factor” value was −0.52, the “HOXC6 (S82986) change factor” value was −0.82 and the “HOXD4 (X59373) change factor” value was −0.76. For the same compound, the “ID1 (X77956) change factor” value was −2.43, the “ID1 (X77956, second entry) change factor” value was −4.7 and the “ID3; HEIR1 (AL021154) change factor” value was −4.35. For the same compound, the “ID-2H (D13891) change factor” value was −2.68, the “ID-4 (AL022726) change factor” value was −0.49 and the “IEX-1 (S81914) change factor” value was 0.91. For the same compound, the “IFIT1; IFI56 (M24594) change factor” value was −0.61, the “IFIT1; IFI56 (M24594, second entry) change factor” value was −0.71 and the “IFIT2; ISG-54K (M14660) change factor” value was 1.17. The “IFIT2; ISG-54K (M14660, second entry) change factor” value was 0.58, the “IFIT4; IFI60; cig5; RIGG (AF026941) change factor” value was 5.46 and the “IGF-BP 3; insulin-like growth factor-binding protein-3 gene (M35878) change factor” value was 1.64. For the same compound, the “IGF-BP 3; insulin-like growth factor-binding protein-3 gene (M35878, second entry) change factor” value was 1.73, the “IL6; Interleukin 6; IFNβα2a (X04430) change factor” value was 2.29 and the “IL18; IGIF (IFNγ inducing factor) (D49950) change factor” value was −0.18. The “ILK; integrin-linked kinase (U40282) change factor” value was −0.51, the “IRF-1; interferon regulatory factor 1 (L05072) change factor” value was 0.29 and the “IRF-7b; interferon regulatory factor 7b (U53831) change factor” value was 0.49. The “IRF-9; p48; ISGF3γ (M97935) change factor” value was −0.67, the “JUNB (M29039) change factor” value was −0.72 and the “JUNB (X51345) change factor” value was −0.7. For the same compound, the “JUND (X56681) change factor” value was 3.2, the “JUND (X56681, second entry) change factor” value was 1.83 and the “JUND (X56681, third entry) change factor” value was 1.66. For the same compound, the “K-RAS (M54968) change factor” value was −0.64, the “KINESIN-LIKE 2; HSET (AL021366) change factor” value was −0.72 and the “KINESIN-LIKE 2; HSET (D14678) change factor” value was −0.72. For the same compound, the “KINESIN-LIKE 2; HSET (D14678, second entry) change factor” value was −1.15, the “KINESIN-LIKE 5; KNSL5; MKLP-1; mitotic kinesin-like protein-1 (X67155) change factor” value was −1.04 and the “KINESIN-LIKE 6; KNSL6; MCAK; mitotic centromere-associated kinesin (U63743) change factor” value was −1.61. For the same compound, the “KINESIN_LIKE 1; KNSL1; HKSP; EG5 (U37426) change factor” value was −0.92, the “KLF4; EZF (epithelial Zn finger) (U70663) change factor” value was 3.46 and the “KRS-2; stress responsive serine/threonine protein kinase (U60207) change factor” value was −0.35. For the same compound, the “KU (p70/p80) (M30938) change factor” value was −0.64, the “LIM kinase 2 (limk-2) (D45906) change factor” value was −0.66 and the “Lekti (AJ228139) change factor” value was 0.75. For the same compound, the “MAD3L; mitotic checkpoint kinase (AF053306) change factor” value was −2.45, the “MAF-F (AL021977) change factor” value was 1.71 and the “MAP kinase phosphatase (mkp-2) (U48807) change factor” value was 1.12. For the same compound, the “MAPK9; JNK2 (U09759) change factor” value was −0.57, the “MAPK14; p38; csaids binding protein (csbp1) (L35263) change factor” value was −0.53 and the “MAPKK3b; MKK3b (D87116) change factor” value was 0.62. For the same compound, the “MAPKK MEK5b (U71087) change factor” value was −0.7, the “MAPKKK5; ASK1 (U67156) change factor” value was −4.7 and the “MEIS2 (AF017418) change factor” value was −1.3. For the same compound, the “MMP10 (X07820) change factor” value was 2.2, the “MMP-1 (M13509) change factor” value was −0.22 and the “MMP-3 (X05232) change factor” value was 0.93. For the same compound, the “N-RAS (X02751) change factor” value was −0.01.
